Assay results from ChEMBL document CHEMBL1201862, “PubChem BioAssay data set” (2004).
Active and inactive are the calls of the source.

Experiments:
[1] = insulin promoter down-regulators in MIN6 cells, imaging, high-content screening, mouse beta cells (AID 1628); type: functional
[2] = biological target: Heat shock protein HSP 90-alpha (Homo sapiens, UniProt P07900); type: functional, organism-based
[3] = cytotoxicity in HEK-293T cells, dose response, cytotoxicity control for BCR NF-kB inhibitor project, luminescence, B-cell screen hits (AID 489021); type: functional, cell-based;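 note: HEK-293T cells carrying an NF-kB luciferase reporter; cells exposed to compound for about 14 hours before viability readout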
[4] = HEK293 cell cytotoxicity, dose response, cytotoxicity control, plate reader, cherry-picked samples (AID 743446); type: functional, cell-based
[5] = system: INS1; assay: beta cell apoptosis inhibitors, cytokine rescue, dose response, luminescence, retest (AID 449756); type: functional, cell-based; conditions: Rattus norvegicus;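 note: cell death triggered by IL-1 beta plus TNF-alpha plus IFN-gamma mixture; protective hits raise ATP signal compared with cytokine alone wells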
[6] = MC4R antagonists, dose response, counter-screen for LGR2 antagonist project, cell-based, plate reader, cherry pick (AID 743444); type: functional;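 note: transfected HEK 293 cells stimulated with alpha-MSH peptide; potency of inhibitors of the alpha-MSH evoked signal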
[7] = biological target: T1, Replicative DNA helicase DnaB (Mycobacterium tuberculosis, UniProt P9WMR3); assay: DnaB intein splicing inhibitors, dose response, biochemical, cell-free fluorescence (AID 449749); type: functional
T1 sequence (P9WMR3 whole entry): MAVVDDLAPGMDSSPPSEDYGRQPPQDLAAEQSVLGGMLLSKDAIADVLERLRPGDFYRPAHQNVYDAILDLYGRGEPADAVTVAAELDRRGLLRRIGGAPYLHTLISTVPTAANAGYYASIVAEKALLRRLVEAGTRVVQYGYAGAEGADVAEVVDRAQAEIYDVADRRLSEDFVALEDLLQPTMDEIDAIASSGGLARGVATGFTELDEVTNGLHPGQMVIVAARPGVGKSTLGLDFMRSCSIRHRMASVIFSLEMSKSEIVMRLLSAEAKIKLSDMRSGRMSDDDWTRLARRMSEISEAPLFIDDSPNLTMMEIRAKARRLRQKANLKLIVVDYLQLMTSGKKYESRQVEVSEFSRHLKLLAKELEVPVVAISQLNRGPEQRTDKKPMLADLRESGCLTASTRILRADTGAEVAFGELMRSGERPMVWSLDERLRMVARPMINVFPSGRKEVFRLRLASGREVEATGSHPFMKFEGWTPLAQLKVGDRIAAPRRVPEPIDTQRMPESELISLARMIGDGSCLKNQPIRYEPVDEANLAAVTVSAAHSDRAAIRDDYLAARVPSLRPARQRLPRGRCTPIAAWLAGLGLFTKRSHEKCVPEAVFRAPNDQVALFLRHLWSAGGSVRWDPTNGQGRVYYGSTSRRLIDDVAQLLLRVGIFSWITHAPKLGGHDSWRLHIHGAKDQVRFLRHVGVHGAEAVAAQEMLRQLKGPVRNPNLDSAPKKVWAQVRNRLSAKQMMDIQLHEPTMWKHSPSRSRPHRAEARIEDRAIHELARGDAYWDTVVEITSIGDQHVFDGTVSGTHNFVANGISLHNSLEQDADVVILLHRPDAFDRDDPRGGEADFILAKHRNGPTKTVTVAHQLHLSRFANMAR

[8] = HepG2 cell cytotoxicity, dose response, cytotoxicity control, plate reader, cherry-pick, antagonist series (AID 743416); type: functional, cell-based
[9] = cytotoxicity in MIN6 insulinoma cells, dose response, cytotoxicity control, cell-based, mouse insulinoma (AID 2122); type: functional;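 note: confirmatory high-throughput counterscreen run to flag cytotoxic compounds; mouse MIN-6 beta cells carrying an insulin promoter eGFP reporter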
[10] = biological target: T2, High affinity choline transporter 1 (Homo sapiens, UniProt Q9GZV3); assay: CHT inhibitors, dose response, cell-based, 5-point CRC, membrane potential dye (AID 504840); type: functional
T2 sequence (Q9GZV3 whole entry): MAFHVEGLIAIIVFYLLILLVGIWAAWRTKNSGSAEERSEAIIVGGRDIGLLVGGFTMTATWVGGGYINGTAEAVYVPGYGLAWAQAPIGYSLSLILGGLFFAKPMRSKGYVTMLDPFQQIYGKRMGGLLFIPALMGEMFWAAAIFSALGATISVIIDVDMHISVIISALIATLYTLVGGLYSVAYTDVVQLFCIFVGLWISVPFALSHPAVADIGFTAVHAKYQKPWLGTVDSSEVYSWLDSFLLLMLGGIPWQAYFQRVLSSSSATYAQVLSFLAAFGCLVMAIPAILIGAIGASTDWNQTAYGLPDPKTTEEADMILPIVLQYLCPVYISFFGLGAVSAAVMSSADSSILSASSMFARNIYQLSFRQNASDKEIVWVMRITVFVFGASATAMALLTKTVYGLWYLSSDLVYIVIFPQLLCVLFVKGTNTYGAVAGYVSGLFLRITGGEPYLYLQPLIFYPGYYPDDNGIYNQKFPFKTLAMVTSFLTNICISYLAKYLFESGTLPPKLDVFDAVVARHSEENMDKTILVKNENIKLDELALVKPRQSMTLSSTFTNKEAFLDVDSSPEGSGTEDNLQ

[11] = biological target: T3, Protein RecA (Mycobacterium tuberculosis, UniProt P9WHJ3); assay: Fluorescence Cell-Free Homogeneous Dose Retest to Identify Inhibitors of RecA-Intein Splicing Activity. [Related pubchem assays (depositor defined):AID2097, AID2223, AID489010, AID492950]; type: functional
T3 sequence (P9WHJ3 whole entry): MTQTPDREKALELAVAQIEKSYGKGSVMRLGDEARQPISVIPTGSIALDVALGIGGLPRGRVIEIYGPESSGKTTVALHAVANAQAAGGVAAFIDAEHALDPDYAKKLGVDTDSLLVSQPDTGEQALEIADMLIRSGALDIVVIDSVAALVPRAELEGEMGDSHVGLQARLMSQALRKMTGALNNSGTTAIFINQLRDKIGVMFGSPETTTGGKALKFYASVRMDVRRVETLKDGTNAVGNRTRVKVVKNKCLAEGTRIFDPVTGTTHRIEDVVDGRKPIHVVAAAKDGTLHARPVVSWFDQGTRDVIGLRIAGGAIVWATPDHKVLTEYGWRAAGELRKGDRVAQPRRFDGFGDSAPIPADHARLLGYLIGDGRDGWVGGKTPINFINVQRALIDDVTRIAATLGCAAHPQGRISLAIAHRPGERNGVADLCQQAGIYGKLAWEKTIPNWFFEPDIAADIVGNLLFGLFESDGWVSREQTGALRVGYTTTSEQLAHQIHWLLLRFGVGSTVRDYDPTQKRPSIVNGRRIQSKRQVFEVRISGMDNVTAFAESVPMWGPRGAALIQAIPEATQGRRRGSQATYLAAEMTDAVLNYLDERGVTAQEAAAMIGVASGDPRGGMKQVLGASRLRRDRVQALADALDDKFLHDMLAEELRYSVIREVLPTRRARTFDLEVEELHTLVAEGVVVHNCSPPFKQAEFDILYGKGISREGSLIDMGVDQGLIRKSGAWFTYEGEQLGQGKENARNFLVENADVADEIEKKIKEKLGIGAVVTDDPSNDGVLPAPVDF

[12] = biological target: T4, SUMO-activating enzyme (Homo sapiens, UniProt Q9UBT2); assay: inhibitors of in vitro SUMOylation cascade, primary screen, biochemical, HTRF, uHTS (AID 2006); type: protein-complex assay
T4 sequence (Q9UBE0 whole entry): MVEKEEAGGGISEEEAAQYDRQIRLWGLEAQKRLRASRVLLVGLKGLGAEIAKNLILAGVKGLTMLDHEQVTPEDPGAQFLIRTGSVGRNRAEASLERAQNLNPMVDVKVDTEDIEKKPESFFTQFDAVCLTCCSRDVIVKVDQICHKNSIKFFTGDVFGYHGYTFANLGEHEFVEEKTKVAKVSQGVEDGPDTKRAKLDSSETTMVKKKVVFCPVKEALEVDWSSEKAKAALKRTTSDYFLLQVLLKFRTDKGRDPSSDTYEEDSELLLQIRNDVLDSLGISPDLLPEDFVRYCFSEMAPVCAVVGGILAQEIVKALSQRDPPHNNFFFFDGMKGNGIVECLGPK
T4 sequence (Q9UBT2 whole entry): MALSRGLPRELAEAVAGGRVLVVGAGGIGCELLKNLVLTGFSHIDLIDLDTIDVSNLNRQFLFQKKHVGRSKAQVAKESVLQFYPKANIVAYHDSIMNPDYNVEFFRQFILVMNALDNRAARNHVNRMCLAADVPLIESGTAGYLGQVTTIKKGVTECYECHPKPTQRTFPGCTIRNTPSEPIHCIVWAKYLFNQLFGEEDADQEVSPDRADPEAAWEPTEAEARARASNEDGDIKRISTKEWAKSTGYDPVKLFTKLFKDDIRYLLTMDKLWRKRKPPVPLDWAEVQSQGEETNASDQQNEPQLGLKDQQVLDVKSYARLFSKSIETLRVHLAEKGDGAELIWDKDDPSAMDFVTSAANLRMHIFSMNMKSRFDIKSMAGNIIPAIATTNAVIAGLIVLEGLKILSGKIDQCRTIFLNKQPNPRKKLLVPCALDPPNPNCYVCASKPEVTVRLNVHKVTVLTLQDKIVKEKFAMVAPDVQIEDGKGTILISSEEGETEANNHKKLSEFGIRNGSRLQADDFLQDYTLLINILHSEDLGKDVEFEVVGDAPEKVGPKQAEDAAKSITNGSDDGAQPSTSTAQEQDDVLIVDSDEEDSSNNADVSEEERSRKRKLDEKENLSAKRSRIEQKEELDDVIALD

[13] = LGR2 antagonists, dose response, cell-based, HEK293, CRE-luciferase reporter, cherry pick, set 2 (AID 743343); type: functional;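 note: transfected cells were stimulated with diluted bursicon conditioned medium after compound addition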
[14] = A549 cell cytotoxicity, dose response, cytotoxicity control, plate reader, cherry-pick, antagonist series (AID 743412); type: functional, cell-based
[15] = biological target: T4, SUMO-activating enzyme; assay: SUMOylation inhibitor hit validation, confirmation, SUMOylation inhibitor project, biochemical, AlphaScreen (AID 2018); type: functional

O=C(Nc1nc(-c2ccccc2)cs1)c1ccccc1NS(=O)(=O)c1ccc(F)cc1
active: IC50 [1] 3.02 µM | AC50 [2] 2.91 µM | IC50 [3] 14.8 µM | AC50 [4] 3.39 µM | AC50 [5] 3.41 µM | AC50 [6] 6.01 µM | AC50 [7] 2.17 µM | AC50 [8] 11.2 µM | IC50 [9] 2.18 µM | IC50 [10] 13.8 µM | EC50 [11] 8.85 µM | IC50 [12] 18.4 µM | AC50 [13] 28.6 µM | AC50 [14] 14.6 µM | IC50 [15] 7.97 µM
